Here are results for seven compounds from paper PMC4096598 (PLoS ONE, 2014).

Assay [1] concerns Mycobacterium tuberculosis H37Rv (ATCC 27294). The settings on record: literature value ref Rastogi, et al., 1996 [55]; cited from earlier work.
The test system of a further assay is human red blood cells. In words: Hemolytic assay. The class given is cell-based. The settings on record: 1 h at room temperature; for hemolysis of human erythrocytes: relative to 10% Triton X-100, average of at least four independent experiments; for IC50: human red blood cells, absorbance 570 nm, vs 10% Triton X-100, mean and 95% confidence intervals, NO = no observed hemolytic activity at 100 µM, read-out: Hemolysis (IC50). As for the experimental part:
Hemolytic activity was determined by incubating suspensions of human red blood cells with serial dilutions of each selected peptides. Red blood cells were rinsed several times in PBS by centrifugation for 3 min at 3,000 g until the OD of the supernatant reached the OD of the control (PBS only). Red blood cells were counted by a hemocytometer and adjusted to 7.7×10^6±0.3×10^6 cells/mL. Red blood cells were then incubated at room temperature for 1 h in 10% Triton X-100 (positive control), in PBS (blank), or with amphipathic peptides at concentrations of 0.4, 0.8, 1.6, 3.1, 6.2, 12.5 and 25 µM, only for Pin2 [14] and Pin2 [17] the 50 and 100 µM concentrations were evaluated. The samples were then centrifuged at 10,000 g for 5 min, the supernatant was separated from the pellet, and its absorbance measured at 570 nm. The relative optical density compared to that of the suspension treated with 10% Triton X-100 was defined as the percentage of hemolysis.
The experimental values represent means ± standard deviations. The hemolytic constants (IC50) were obtained using a non-linear regression where the data was fit to a Boltzmann sigmoid equation. To determine statistically significant differences, an analysis of variance (ANOVA) followed by post hoc testing using the Tukey's method was performed using the software package Prism 4 (GraphPad, Inc., USA). Statistical significances were accepted at p<0.05.

Assay [2] has as its system Escherichia coli (ATCC 25922).
The subject of assay [3] is Staphylococcus aureus (ATCC 25923).
The subject of assay [4] is Escherichia coli (ATCC 25922). The following applies: ATCC 25922, 10 h.
Assay [5] concerns Staphylococcus aureus (ATCC 25923). The settings on record: ATCC 25923, 10 h.
In assay [6] the test system is Mycobacterium tuberculosis H37Rv (ATCC 27294). The following applies: 24 h.

Usually IC50 stands for the point on the concentration scale where inhibition reaches its midpoint.

Values joined by “and” are separate entries in the source; they are usually repeats but may differ in a detail not shown here. Equal values may be shown once. Read-outs that look alike come from different tables or passages of the source. Marks after values point to notes of the source that are not given here. Ends that are not written are not given here.

On to `CC[C@@H](CO)NCCN[C@@H](CC)CO` [Ethambutol], for which, in assay [1], the “MIC Mycobacterium tuberculosis H37Rv” value is 0.5 µg/mL and 2.5 µM.
Turning to `CO[C@H]1/C=C/O[C@@]2(C)Oc3c(C)c(O)c4c(O)c(c(/C=N/N5CCN(C)CC5)c(O)c4c3C2=O)NC(=O)/C(C)=C\C=C\[C@H](C)[C@H](O)[C@@H](C)[C@@H](O)[C@@H](C)[C@H](OC(C)=O)[C@@H]1C` [Rifampicin], in assay [1], the “MIC Mycobacterium tuberculosis H37Rv” value is 0.4 µg/mL and 0.5 µM.
For FWGALAKGALKLIGPGSLFSSFSKKD [Pin2 [GPG]], the “hemolysis of human erythrocytes” value with human red blood cells (peptide at 25 µM) was found to be 30%. Further, the “MIC E. coli” value in assay [2] is reported as 25 µM; in assay [4], 12.5 µM. The “MIC S. aureus” value is given as 25 µM in assay [3] and 12.5 µM in assay [5]. The “MIC Mycobacterium tuberculosis H37Rv” value in assay [6] was determined as 29 ± 9 µM.
For FWGALAKGALKLIGSLFSSFSKKD [Pin2 [G]], in the assay on human red blood cells, the half-inhibitory concentration (IC50) worked out at 1400 nM. Further, the “hemolysis of human erythrocytes” value with human red blood cells (peptide at 25 µM) is 100%. In addition, the “MIC E. coli” value in assay [2] and in assay [4] was 12.5 µM each time. The “MIC S. aureus” value in assay [3] and in assay [5] was 12.5 µM in each case. Moreover, in assay [6], the “MIC Mycobacterium tuberculosis H37Rv” value is 18.7 µM.
On to “FWGALAKGALKLIPSLFSSFSKKD [Pin2, Pandinin 2, reference compound]”, for which the IC50 in the assay with human red blood cells amounted to 3300 nM. Further, the “hemolysis of human erythrocytes” value with human red blood cells (peptide at 25 µM) is listed as 91%. The results for the “MIC E. coli” value in assay [2] and in assay [4] were 18.8 µM and 12.5 µM, respectively. The “MIC S. aureus” value in assay [3] is reported as 37.5 µM; in assay [5] it was 12.5 µM. The “MIC Mycobacterium tuberculosis H37Rv” value in assay [6] was determined as 22.1 ± 8.6 µM.
Consider FWGLKGLKGPGKFSKKL [Pin2 [17]], for which the “MIC E. coli” value in assay [2] is given as 25 µM; in assay [4] it was >25 ^† µM. Moreover, the “MIC S. aureus” value in assay [3] is reported as 80 µM; in assay [5] it was above 25 µM.
Take FWGLKGLKKFSKKL [Pin2 [14]]: the “hemolysis of human erythrocytes” value with human red blood cells (peptide at 100 µM) turned out to be 25%. Besides, the “MIC E. coli” value in assay [2] and in assay [4] was 25 µM throughout. Moreover, the entries for the “MIC S. aureus” value in assay [3] and in assay [5] were above 300 µM and >25 ^† µM, respectively. In addition, the “MIC Mycobacterium tuberculosis H37Rv” value in assay [6] is 11.92 ± 3.7 µM.
